Measured values reported in patent publication US20100269215A1 (SNU R&DB Foundation, priority 2006, published 2010).

Experiments:
[1] = test system: TflA protein; test: Degradation of toxoflavin and its derivatives by TflA protein (TLC enzyme analysis); assay type: biochemical, Paenibacillus polymyxa JH2; details: within given time; see FIG. 8
Method: 5 μM TflA protein, 10 μM MnCl2 and 5 mM DTT (dithiothreitol) were added to analysis buffer (50 mM sodium phosphate (pH 6.5)) to give 200 μl mixture and the reaction was carried out at 25 °C. […] After 10 min of the reaction, 200 μl of chloroform was added to stop the reaction. The chloroform layer was dried completely, then 10 μl of 100% methanol was added. An aliquot taken from the reaction mixture comprising methanol was applied on a TLC plate using pipette. The resulting plate was placed in TLC chamber containing mixed solvents of chloroform and methanol (95:5, V:V) at room temperature. TLC was visualized under UV illuminator (254 nm and 365 nm).

[2] = test system: wild rice leaves (Dongjinbyeo wild-type plant); test: Toxoflavin treatment of leaf pieces, wild-type rice; assay type: in vivo; details: 0, 25, 50 or 100 μM toxoflavin, 48 hrs, under light; seen 40 hrs after treatment
Method: (§1) Thus, the experiment of the present invention was carried out under light.

[3] = test system: transgenic plants to which the toxoflavin-resistant gene has been incorporated; test: Seeds on MS plate containing toxoflavin, transgenic plants; assay type: in vivo, Arabidopsis thaliana; details: media comprising 20 uM toxoflavin; ten days
Method: Detailed method for the transformation is described below. • 1. […] 0.03% silwet was added to the suspension. • 4. […] The plants were wrapped with a plastic bag. Bags were removed two days later.
Roots were also growing well.

[4] = test system: leaves of transgenic T3 rice plant with tflA gene; test: Toxoflavin treatment of leaf pieces, transgenic T3 rice plant expressing tflA; assay type: in vivo; details: 0, 25, 50 or 100 μM toxoflavin, 48 hrs, under light
Method: as §1

[5] = test system: rice callus transformed with pCamLA vector; test: Survival of rice callus under selection with toxoflavin, pCamLA; assay type: cell-based
[6] = test system: rice callus transformed with pTflA vector; test: Selection with toxoflavin of rice callus transformed with pTflA; assay type: cell-based
[7] = test system: non-transgenic organisms (Arabidopsis Col-0); test: Seeds on MS plate containing toxoflavin, non-transgenic organisms; assay type: in vivo, Arabidopsis thaliana; details: media comprising 20 uM toxoflavin; ten days
[8] = test system: rice callus transformed with pTflA vector; test: Survival of rice callus under selection with toxoflavin, pTflA; assay type: cell-based
[9] = test system: Arabidopsis Col-0, non-transgenic organisms; test: Germination and growth on toxoflavin medium, non-transgenic Arabidopsis; assay type: in vivo, Arabidopsis thaliana; details: 20 uM toxoflavin
[10] = test system: transgenic organisms; test: Photo-bleaching test, transgenic Arabidopsis; assay type: in vivo, Arabidopsis thaliana; details: transgenic organisms selected for the test; FIG. 24
From the text: (§2) Such results correspond to the result of PCR described above.

[11] = test system: Arabidopsis Col-0, transgenic organisms with tflA; test: Photo-bleaching test, transgenic Arabidopsis; assay type: in vivo, Arabidopsis thaliana; details: FIG. 24
From the text: as §2

[12] = test system: leaves of the transgenic plants to which tflA gene has been introduced; test: Toxoflavin treatment of cut rice leaves, transgenic T3 plants; details: toxoflavin 0, 25, 50 or 100 μM, under light, 48 hrs
Method: as §1

[13] = test system: Arabidopsis Col-0; test: Photo-bleaching test, non-transgenic Arabidopsis; assay type: in vivo, Arabidopsis thaliana
From the text: as §2

[14] = test system: Arabidopsis Col-0, non-transgenic organisms; test: Photo-bleaching test, non-transgenic Arabidopsis; assay type: in vivo, Arabidopsis thaliana
From the text: as §2

[15] = test system: rice callus transformed with pCamLA vector; test: Selection with toxoflavin of rice callus transformed with pCamLA; assay type: cell-based
[16] = test system: leaves of wild rice; test: Toxoflavin treatment of cut rice leaves, wild type; details: toxoflavin 0, 25, 50 or 100 μM, under light; 40 hrs after the treatment
Method: as §1

[17] = test system: Cn1ncnc2c(=O)n(C)c(=O)nc1-2; test: purified protein, by the assay type; details: other: toxoflavin 80-200 μM, 50 mM sodium phosphate pH 6.5, MnCl2 and DTT, Lineweaver-Burk plot
Method: Each of experimental points is a mean value that is calculated from data obtained from at least of three measurements.

[18] = toxoflavin 5 ug/ml, before redifferentiation
[19] = toxoflavin 7.5 ug/ml, four weeks after placement on redifferentiation medium
[20] = toxoflavin 5 ug/ml, selection before redifferentiation, FIG. 18
[21] = various concentrations, even at low concentration

Question: 4,8-dihydrotoxoflavin was tested. Which “degradation by TflA protein” value [1] did it give?
Answer: completely degraded

Question: How did the “degradation by TflA protein” value [1] turn out when `CC1=NN(C)c2[nH]c(=O)n(C)c(=O)c2N1` [3-methyl 4,8-dihydrotoxoflavin] was run?
Answer: partially degraded

Question: With `Cc1n[nH]c2nc(=O)n(C)c(=O)c-2n1` [3-methylreumycin] as the molecule, how does the “degradation by TflA protein” value [1] read?
Answer: completely degraded

Question: With `Cc1nc2c(=O)n(C)c(=O)nc-2n(C)n1` [3-methyltoxoflavin] as the molecule, how does the “degradation by TflA protein” value [1] read?
Answer: completely degraded

Question: `Cn1c(=O)nc2[nH]nc(-c3ccccc3)nc-2c1=O` [3-phenylreumycin] was tested. Which “degradation by TflA protein” value [1] did it give?
Answer: not degraded at all

Question: With `Cn1nc(-c2ccccc2)nc2c(=O)n(C)c(=O)nc1-2` [3-phenyltoxoflavin] as the molecule, how does the “degradation by TflA protein” value [1] read?
Answer: not degraded at all

Question: How did the “degradation by TflA protein” value [1] turn out when `O=c1[nH]c(=O)c2cc3ccccc3nc2[nH]1` [5-deazaflavin] was run?
Answer: not degraded at all

Question: Which “degradation by TflA protein” value [1] does the source give for `Cn1c(=O)c2ncnnc2n(C)c1=O` [fervenulin] here?
Answer: partially degraded

Question: Which “degradation by TflA protein” value [1] does the source give for `Cn1c(=O)[nH]c2nncnc2c1=O` [reumycin] here?
Answer: partially degraded

Question: Which discoloration of leaves [2] does the source give for `Cn1ncnc2c(=O)n(C)c(=O)nc1-2` [toxoflavin] here?
Answer: discoloration due to the toxin started to show up

Question: What about the growth [3] of the same molecule?
Answer: show normal growth

Question: What about the “degradation by TflA protein” value [1] of the same molecule?
Answer: completely degraded

Question: And the discoloration of leaves [4]?
Answer: no such discoloration was observed

Question: And the survival of callus [5, 18]?
Answer: most of the callus died out

Question: And the survival of callus [5, 19]?
Answer: most of the callus died out

Question: And the survival of callus [6, 20]?
Answer: only a part of the callus died out

Question: What about the survival of callus ([6]; toxoflavin 7.5 ug/ml, four weeks after placement on medium for redifferentiation, FIG. 20) of the same molecule?
Answer: the callus was redifferentiated normally

Question: And the “germination and root growth” value [7]?
Answer: germination did not occur for most of the non-transgenic organisms

Question: What about the survival of callus [8, 18] of the same molecule?
Answer: only a part of the callus died out

Question: And the survival of callus [8, 19]?
Answer: the callus was redifferentiated normally

Question: What about the germination [9] of the same molecule?
Answer: germination did not occur for most of the non-transgenic organisms

Question: What about the “root growth where germination occurred” value [9] of the same molecule?
Answer: root growth was not normal

Question: What about the photo-bleaching [10] of the same molecule?
Answer: photo-bleaching was not observed

Question: What about the photo-bleaching [11] of the same molecule?
Answer: photo-bleaching was not observed

Question: And the discoloration of leaves [12]?
Answer: no such discoloration was observed

Question: And the photo-bleaching ([13]; non-transgenic organisms, FIG. 24)?
Answer: the bleaching occurred

Question: What about the “bleaching effect on the plant” value [13, 21] of the same molecule?
Answer: exerts a bleaching effect

Question: And the photo-bleaching ([14]; bleaching test, FIG. 24)?
Answer: the bleaching occurred

Question: What about the bleaching effect [14, 21] of the same molecule?
Answer: even at low concentration toxoflavin exerts a bleaching effect

Question: What about the survival of callus [15, 20] of the same molecule?
Answer: most of the callus died out

Question: And the survival of callus ([15]; toxoflavin 7.5 ug/ml, four weeks after placement on medium for redifferentiation, FIG. 19)?
Answer: most of the callus died out

Question: And the discoloration of leaves [16]?
Answer: discoloration due to the toxin started to show up

Question: Which Km [17] does the source give for “Paenibacillus polymyxa JH2 TflA protein, wild type, N-terminal His-tagged (His-TflA), SEQ ID NO: 2 (Paenibacillus polymyxa)” here?
Answer: 69.72 µM
